# Earlier results as cited in US20240082270A1 (priority 2021, published 2024).
# Test system: live SARS-CoV-2
row,Structure (SMILES),effectiveness against variants
1,"CCCCCc1cc(O)c(C/C=C(\C)CCC=C(C)C)c(O)c1C(=O)O [CBGA, cannabigerolic acid]",equally effective
2,C=C(C)[C@@H]1CCC(C)=C[C@H]1c1c(O)cc(CCCCC)c(C(=O)O)c1O [CBDA],equally effective
